From PMC10354055, “An optimized Nurr1 agonist provides disease-modifying effects in Parkinson’s disease models” (Nature Communications, 2023)
Values joined by “and” are separate entries in the source; they are usually repeats but may differ in a detail not shown here. Equal entries are not always repeated.

How the values were obtained:
[1] = test system: AAV-αSyn-induced male mice; assay: IHC/stereology of TH+ and NeuN+ neurons and TH+ fibers, AAV-αSyn-induced mice; assay type: in vivo, mouse; settings: αSynWT-mice
Source text: (§1) Adeno-associated viruses (AAVs) expressing GFP only or αSyn (wild-type or A53T) were kindly provided by Dr. Yoon Seong Kim from the University of Central Florida. Recombinant AAV vectors were produced using modified pAAV-IRES-hrGFP (Agilent) to express wild-type and mutant human αSyn under control of the CMV promoter. Viral particles (AAV2) were produced at the University of Iowa Viral Vector Core according to standard operating procedures (https://medicine.uiowa.edu/vectorcore/). […] AAV vectors were delivered into the substantia nigra unilaterally by stereotaxic surgery.
Images were acquired using a KEYENCE microscope and quantified as the number or optical density of immunoreactive cells using ImageJ software.
The numbers of TH^+ DA neurons, NeuN^+ neurons, pS129 αSyn^+ cells in the SN and Iba-1^+ microglia in the SN and striatum were stereologically counted in six coronal sections (30 µm thickness) taken every 6th section (180 µm intervals) for each brain. The boundaries of the SN and striatum were delimited at low magnification (4X) to estimate each total area. Immunoreactive cells were counted with images taken at high magnification (×40) by a single blinded investigator. The group mean of the total number of immunoreactive cells from each brain was transformed as percentage of the number in the control group (%). For AAV-αSyn-induced mice, the group mean of the total number of cells in the ipsilateral side was transformed as a percentage of that observed in the contralateral side.

Nurr1-LBD = Nurr1-LBD (Homo sapiens, UniProt P43354); assay: [3H]-CQ radioligand competition binding assay; settings: Fig. 1h
Experimental: Saturation and competition assays were performed as previously described. For saturation assay, 0.2 µM of Nurr1-LBD and 125-10,000 nM of [^3H]-CQ were incubated in binding buffer (20 mM sodium acetate buffer (pH 5.2)) at 4 °C overnight. […] Assay mixtures were applied to GF/B filters (Brandel Inc.) to capture Nurr1-LBD bounded ligands. […] All graphs and IC50 values were generated using the non-linear regression program in GraphPad Prism version 8.0.2.

[2] = test system: AAV-αSyn-induced male mice; assay: Rotarod, AAV-αSyn-induced PD model mice; assay type: in vivo, mouse; settings: αSynWT and αSynA53T mice; CQ 40, 4A7C-301 5 mg/kg/day i.p.
Source text: as §1
(§2) Mice were pre-trained on an automated 5-lane rotarod unit (10 rpm, 3 min) for 2 days and the baseline was measured (10 rpm, 90 sec) before the rotarod test (3 days before the MPTP injection or the first rotarod test at week 2). Rotarod measurements were performed using an accelerating protocol, accelerated smoothly from 2 to 30 rpm for 5 min. Time on the rotating rod was measured automatically by placing a trip switch under the floor beneath the rotating drum.

MPTP-induced male mice [3] = assay: Rotarod, sub-chronic MPTP-induced PD model mice; assay type: in vivo, mouse; settings: Figure 4b; MPTP-induced mice; individual animal values
Experimental: (§3) MPTP (Sigma-Aldrich) was intraperitoneally (i.p.) injected (30 mg/kg) for 5 days (Day 1-5). […] To test dyskinetic involuntary behavior, an L-DOPA injected group was included, which received 50 mg/kg of L-DOPA and 15 mg/kg of benserazide (Sigma-Aldrich) (i.p.) for 16 days (Day 1–16). All compounds were administered 6 h post-MPTP injection to avoid any effect of compounds on the MPTP metabolism in the brain. Motor and non-motor related behavior tests were performed on the following days as described in Fig. 4a in an assessor- and observer-blinded fashion. Pre-training and baseline setup for motor-related behaviors were performed 3 days prior to the injections. Mice were sacrificed and subjected to immunohistochemistry. Mice were housed at the Animal Care Facilities of McLean Hospital under a 12-h light/12-h dark cycle, ambient temperature and humidity. Animals were handled in accordance with McLean Hospital’s Institutional Animal Care and Use Committee (Protocol #: 2015N000002) and followed National Institutes of Health guidelines.
as §2

MPTP-induced male mice [4] = assay: Cylinder test, MPTP-induced PD model mice; assay type: in vivo, mouse; settings: Figure 4d; MPTP-induced mice; individual animal values
Experimental: as §3
Mice were placed in a transparent plastic cylinder (15.5 cm high, 12.7 cm diameter) with a mirror behind it. Spontaneous activity was recorded and measured as counting the number of rearing events for 3 min session. A rear was considered only when the mouse touched the wall of the cylinder with its forelimb paws while standing on its hindlimbs (vertical movement) to count meaningful physiological movements.

[5] = test system: AAV-αSyn-induced male mice; assay: Dopamine ELISA in SN and STR, AAV-αSyn-injected mice; assay type: in vivo, mouse
Source text: as §1
For MPTP-induced mice, the left hemisphere of each group (n = 5) was used for analysis and compared to the vehicle-treated group (VEH). For AAV-αSyn-injected mouse model, the viral vector injected side (left hemisphere; ipsilateral) of each group (n = 3) was compared to the non-injected side (right hemisphere; contralateral).

MN9D cells = assay: Cell viability, MTT reduction, MPP+-treated MN9D cells; assay type: cell-based, mouse
Experimental: Cell viability was determined using 3-(4,5-dimethylthiazol-2-yl)-2,5-diphenyltetrazolium bromide (MTT) as previously described[60]. Briefly, cells were incubated with 5 mg/ml of MTT (Sigma-Aldrich) solution for 3.5 h at 37 °C. MTT formazan crystals were dissolved in 10 times the volume of MTT solvent (4 mM HCl and 0.1% Nonidet P-40 in isopropanol) and the absorbance from the generated blue formazan was measured at 570 nm after 15 min incubation at room temperature. Cell viability was calculated as a percentage (%) of MTT reduction relative to vehicle control.

Chain of Nurr1-LBD (P43354 360-595 limits assumed, species assumed): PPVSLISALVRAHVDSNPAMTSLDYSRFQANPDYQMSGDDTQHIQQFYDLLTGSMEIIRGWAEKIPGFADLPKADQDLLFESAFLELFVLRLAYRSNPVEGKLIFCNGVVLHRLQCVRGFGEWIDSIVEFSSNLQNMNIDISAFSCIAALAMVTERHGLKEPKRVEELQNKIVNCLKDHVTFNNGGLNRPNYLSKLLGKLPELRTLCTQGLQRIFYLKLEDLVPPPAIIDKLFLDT

## CCN(CC)CCCC(C)Nc1ccnc2cc(Cl)ccc12 (centres unmarked) [CQ, chloroquine]
[1]
  loss of TH+ and NeuN+ neurons and TH+ fibers (in words): partially prevented
Nurr1-LBD; competitor conc. 0.0001 (µM)
  % of Specific binding: 118.1264% and 84.3678% and 87.5058%
Nurr1-LBD; competitor conc. 0.001 (µM)
  % of Specific binding: 105.0129% and 88.1206% and 97.7170%
Nurr1-LBD; competitor conc. 0.01 (µM)
  % of Specific binding: 86.0400% and 103.1100% and 99.0600%
Nurr1-LBD; competitor conc. 0.1 (µM)
  % of Specific binding: 92.2329% and 89.2060% and 101.4170%
Nurr1-LBD; competitor conc. 1 (µM)
  % of Specific binding: 91.1049% and 87.6783% and 85.5188%
Nurr1-LBD; competitor conc. 10 (µM)
  % of Specific binding: 73.9055% and 78.9516% and 86.9689%
Nurr1-LBD; competitor conc. 100 (µM)
  % of Specific binding: 60.9070% and 71.4020% and 69.8520%
Nurr1-LBD; competitor conc. 1000 (µM)
  % of Specific binding: 61.7083% and 49.9850% and 61.0054%
Nurr1-LBD; competitor conc. 10000 (µM)
  % of Specific binding: 29.9520% and 33.4512% and 36.5796%
Nurr1-LBD; competitor conc. 100000 (µM)
  % of Specific binding: 19.5396% and 23.9835% and 21.7371%
Nurr1-LBD; competitor conc. 1000000 (µM)
  % of Specific binding: 14.1307% and 7.3236% and 10.4343%
Nurr1-LBD; competition with [3H]-CQ
  IC50: 1030 nM and 1000 nM
[2]
  motor deficits, rotarod (latency to fall) (in words): partial recovery
MPTP-induced male mice [3]
  Latency to fall: 188.53 s and 158.67 s and 132.1 s and 179.3 s and 127.13 s and 200.87 s and 173.6 s and 164.1 s
MPTP-induced male mice [4]
  Number of rearing: 9 and 22 and 80 and 21 and 16 and 37 and 89 and 30 and 61
[5]; Supplementary Figure S10e, αSynA53T
  DA level (% of contralateral side): 32.648 % of contralateral side and 32.350 % of contralateral side and 33.119 % of contralateral side
[5]; Supplementary Figure S10e, αSynWT
  DA level (% of contralateral side): 73.112 % of contralateral side and 72.962 % of contralateral side and 71.012 % of contralateral side
[5]; Supplementary Figure S10f, αSynA53T
  DA level (% of contralateral side): 33.096 % of contralateral side and 33.011 % of contralateral side and 33.320 % of contralateral side
[5]; Supplementary Figure S10f, αSynWT
  DA level (% of contralateral side): 70.155 % of contralateral side and 68.851 % of contralateral side and 68.899 % of contralateral side
[5]; αSynWT-mice
  DA levels in the SN and STR (in words): significantly increased
MN9D cells; Fig. S3c, with MPP+, 1 µM
  MTT reduction (%): 53.8043% and 53.2609% and 51.6304%
MN9D cells; Fig. S3c, with MPP+, 5 µM
  MTT reduction (%): 55.4348% and 56.5217%
MN9D cells; Fig. S3c, with MPP+, 10 µM
  MTT reduction (%): 57.6087% and 55.9783% and 57.0652%
MN9D cells; Fig. S3c, with MPP+, 50 µM
  MTT reduction (%): 61.413% and 59.7826%
MN9D cells; Fig. S3c, with MPP+, 100 µM
  MTT reduction (%): 62.5% and 61.413% and 64.6739%
MN9D cells; Fig. S3e, MPP+, Control, CQ 100 µM, 4A7C-301 1 µM
  MTT reduction (%): 62.8947% and 66.3158% and 61.0526% and 60.2632%
MN9D cells; Fig. S3e, MPP+, Nurr1 KD, CQ 100 µM, 4A7C-301 1 µM
  MTT reduction (%): 34.7368% and 29.4737% and 30.7895% and 32.6316%
MN9D cells; Fig. S3e, MPP+, Nurr1 OE, CQ 100 µM, 4A7C-301 1 µM
  MTT reduction (%): 86.0526% and 90.2105% and 84.3158% and 89.4737%
